Measurements taken from US20040142007A1, “Cosmetic preparations containing an extract of germinating plants” (priority 2001, published 2004).

Tested on: B16 melanocytes
Test: Inhibition of melanin synthesis in B16 melanocytes
Assay type: cell-based
Settings: 0.5% w/v; 3 days; control = 100%
Description: To carry out the test, melanocytes (B16 cell line) were incubated for 3 days at 37° C./5% CO2 in a standard growth medium for cell cultures containing foetal calf serum (FCS). The growth medium was then replaced by a standard medium with which the substances to be tested were adjusted to different concentrations. After incubation for 3 days, the number of living cells was determined through the cell protein content (Bradford's method) and the content of synthesized melanin—recorded in the cell homogenizate at an optical density of 475 nm. The results are expressed in % against a control of pure cell culture medium.

Q: For OC[C@H]1O[C@@H](Oc2ccc(O)cc2)[C@H](O)[C@@H](O)[C@@H]1O [Arbutin], which Cell protein content is on record?
A: Its Cell protein content is 81%.

Q: And the Melanin content?
A: Its Melanin content is 35%.
